Test results as given in ChEMBL document CHEMBL3885861, “Open TG-GATES”.

Species on record: Rattus norvegicus
Experiment: Open TG-GATES - Regimen: Single
Format: toxicity, organism-based, Sprague-Dawley
Set-up: regimen Single, gender Male, age 6 weeks
Details: in vivo, po, 1000 mg/kg, route gavage, dose level Middle; for APTT / Bas / Eos / Fbg / Hb / Ht / Lym / MCH / MCHC / MCV / Mono / Neu / PT / Plat / RBC / Ret / WBC: tissue Blood; for KIDNEY_L / KIDNEY_R / KIDNEY_TOTAL: tissue Kidney; for LIVER: tissue Liver; for A/G / ALP / ALT / AST / BUN / CRE / Ca / Cl / DBIL / GLC / IP / K / LDH / Na / PL / RALB / TBIL / TC / TG / TP / gamma-GTP: tissue Plasma

Question: What does the source list for `COc1ccc(O)c(C(C)(C)C)c1.COc1ccc(O)cc1C(C)(C)C` [BUTYLATED HYDROXYANISOLE]?
Answer: TERMINAL_BW (3 h): 206 g; APTT (3 h): 14.7 s; Bas (3 h): 0.2%; Eos (3 h): 0.5%; Fbg (3 h): 270.8 mg/dL; Hb (3 h): 13.5 g/dL; Ht (3 h): 39.4%; Lym (3 h): 79.2%; MCH (3 h): 20.8 pg; MCHC (3 h): 34.3%; MCV (3 h): 60.8 fL; Mono (3 h): 1.9%; Neu (3 h): 17.3%; PT (3 h): 11.6 s; Plat (3 h): 142.9 x10_4/uL; RBC (3 h): 649 x10_4/ul; Ret (3 h): 7.8%; WBC (3 h): 77.2 x10_2/uL; KIDNEY_L (3 h): 0.9 g; KIDNEY_R (3 h): 0.9 g; KIDNEY_TOTAL (3 h): 1.8 g; LIVER (3 h): 8.6 g; A/G (3 h): 0.8; ALP (3 h): 1827.4 IU/L; ALT (3 h): 53.4 IU/L; AST (3 h): 77.8 IU/L; BUN (3 h): 10.6 mg/dL; CRE (3 h): 0.2 mg/dL; Ca (3 h): 11.1 mg/dL; Cl (3 h): 103.6 meq/L; DBIL (3 h): 0.028 mg/dL; GLC (3 h): 179.2 mg/dL; IP (3 h): 10.3 mg/dL; K (3 h): 3.5 meq/L; LDH (3 h): 60.8 IU/L; Na (3 h): 142.6 meq/L; PL (3 h): 150.6 mg/dL; RALB (3 h): 2.6 g/dL; TBIL (3 h): 0.084 mg/dL; TC (3 h): 85.2 mg/dL; TG (3 h): 76.4 mg/dL; TP (3 h): 5.8 g/dL; gamma-GTP (3 h): 1 IU/L; TERMINAL_BW (6 h): 201.1 g; APTT (6 h): 15.6 s; Bas (6 h): 0.2%; Eos (6 h): 0.8%; Fbg (6 h): 279.6 mg/dL; Hb (6 h): 13.9 g/dL; Ht (6 h): 40.4%; Lym (6 h): 72.6%; MCH (6 h): 21.2 pg; MCHC (6 h): 34.3%; MCV (6 h): 61.8 fL; Mono (6 h): 1.6%; Neu (6 h): 24.1%; PT (6 h): 12.7 s; Plat (6 h): 136.4 x10_4/uL; RBC (6 h): 654.6 x10_4/ul; Ret (6 h): 7.3%; WBC (6 h): 78.7 x10_2/uL; KIDNEY_L (6 h): 0.9 g; KIDNEY_R (6 h): 0.8 g; KIDNEY_TOTAL (6 h): 1.7 g; LIVER (6 h): 7.5 g; A/G (6 h): 0.9; ALP (6 h): 1472.6 IU/L; ALT (6 h): 49.4 IU/L; AST (6 h): 74 IU/L; BUN (6 h): 9.6 mg/dL; CRE (6 h): 0.2 mg/dL; Ca (6 h): 10.9 mg/dL; Cl (6 h): 108.4 meq/L; DBIL (6 h): 0.034 mg/dL; GLC (6 h): 166 mg/dL; IP (6 h): 9.8 mg/dL; K (6 h): 4 meq/L; LDH (6 h): 54.8 IU/L; Na (6 h): 142.6 meq/L; PL (6 h): 139.4 mg/dL; RALB (6 h): 2.6 g/dL; TBIL (6 h): 0.09 mg/dL; TC (6 h): 81.4 mg/dL; TG (6 h): 68.6 mg/dL; TP (6 h): 5.7 g/dL; gamma-GTP (6 h): 1 IU/L; TERMINAL_BW (9 h): 199.9 g; APTT (9 h): 16.6 s; Bas (9 h): 0.2%; Eos (9 h): 0.9%; Fbg (9 h): 285 mg/dL; Hb (9 h): 13.6 g/dL; Ht (9 h): 39.7%; Lym (9 h): 71.9%; MCH (9 h): 21.1 pg; MCHC (9 h): 34.4%; MCV (9 h): 61.6 fL; Mono (9 h): 1.6%; Neu (9 h): 24.9%; PT (9 h): 13.2 s; Plat (9 h): 138.7 x10_4/uL; RBC (9 h): 643.8 x10_4/ul; Ret (9 h): 7.6%; WBC (9 h): 65.3 x10_2/uL; KIDNEY_L (9 h): 0.9 g; KIDNEY_R (9 h): 0.8 g; KIDNEY_TOTAL (9 h): 1.7 g; LIVER (9 h): 7.5 g; A/G (9 h): 0.8; ALP (9 h): 1561.2 IU/L; ALT (9 h): 41.6 IU/L; AST (9 h): 72.8 IU/L; BUN (9 h): 7.6 mg/dL; CRE (9 h): 0.2 mg/dL; Ca (9 h): 11 mg/dL; Cl (9 h): 107.8 meq/L; DBIL (9 h): 0.03 mg/dL; GLC (9 h): 154.8 mg/dL; IP (9 h): 10.3 mg/dL; K (9 h): 4 meq/L; LDH (9 h): 51.4 IU/L; Na (9 h): 142.8 meq/L; PL (9 h): 135.2 mg/dL; RALB (9 h): 2.7 g/dL; TBIL (9 h): 0.09 mg/dL; TC (9 h): 78.2 mg/dL; TG (9 h): 44.6 mg/dL; TP (9 h): 5.9 g/dL; gamma-GTP (9 h): 0.8 IU/L; TERMINAL_BW (24 h): 209.5 g; APTT (24 h): 16.1 s; Bas (24 h): 0.2%; Eos (24 h): 0.4%; Fbg (24 h): 257 mg/dL; Hb (24 h): 13.5 g/dL; Ht (24 h): 39.5%; Lym (24 h): 79.9%; MCH (24 h): 20.8 pg; MCHC (24 h): 34.1%; MCV (24 h): 61 fL; Mono (24 h): 2.3%; Neu (24 h): 16.1%; PT (24 h): 12.4 s; Plat (24 h): 150.2 x10_4/uL; RBC (24 h): 647.4 x10_4/ul; Ret (24 h): 6.3%; WBC (24 h): 89 x10_2/uL; KIDNEY_L (24 h): 0.9 g; KIDNEY_R (24 h): 0.9 g; KIDNEY_TOTAL (24 h): 1.9 g; LIVER (24 h): 9.4 g; A/G (24 h): 0.9; ALP (24 h): 1827.8 IU/L; ALT (24 h): 46.2 IU/L; AST (24 h): 75.8 IU/L; BUN (24 h): 12.4 mg/dL; CRE (24 h): 0.2 mg/dL; Ca (24 h): 11.4 mg/dL; Cl (24 h): 107.8 meq/L; DBIL (24 h): 0.046 mg/dL; GLC (24 h): 156.4 mg/dL; IP (24 h): 8.3 mg/dL; K (24 h): 4.3 meq/L; LDH (24 h): 72 IU/L; Na (24 h): 142.8 meq/L; PL (24 h): 149 mg/dL; RALB (24 h): 2.7 g/dL; TBIL (24 h): 0.098 mg/dL; TC (24 h): 84.2 mg/dL; TG (24 h): 236.8 mg/dL; TP (24 h): 5.8 g/dL; gamma-GTP (24 h): 1 IU/L
